Measurements: article PMC12763877 (Journal of Experimental & Clinical Cancer Research : CR, 2025)
Read-outs that look alike come from different tables or passages of the source.

How the values were obtained:
HUVEC [1] = assay: Sulforhodamine B proliferation assay; format: cell-based, human; conditions: for IC50: Homo sapiens, HUVEC, read-out: IC50, HUVEC proliferation
Protocol: The culture medium was aspirated from the plates, and cells were fixed with 10% trichloroacetic acid (TCA) for 30 min. The plates were then washed twice with distilled water and air-dried. Subsequently, 0.4% sulforhodamine B (SRB) solution was added, and the plates were stained on a shaker for 20 min. The staining solution was discarded, and excess dye was removed by washing with freshly prepared 1% acetic acid. After air-drying, 10 mM Tris solution was added to each well. The plates were agitated on a shaker for 5 min to dissolve the dye, and the absorbance was measured at 560 nm using a microplate reader.
Angiogenesis is a multi-step process requiring coordinated endothelial functions, such as cell migration, proliferation, and extracellular matrix remodeling. […] Moreover, in the later stages of angiogenesis, vascular endothelial cells undergo proliferation and migration and further align to form cord-like, lumen-like structures(21). Thus, we conducted a vascular tube formation assay to evaluate the effect of candesartan on vascular normalization.

[2] = tested on: FAK-MMP9 signaling in HUVEC; assay: Western blot of FAK and MMP-9; format: cell-based, human; conditions: candesartan 15, 7.5, 3.75 µM; sunitinib 2 µM
Protocol: (§1) Total protein was extracted using RIPA lysis buffer (Solarbio, China) supplemented with phenylmethylsulfonyl fluoride (PMSF; Thermo Fisher Scientific, USA), protease inhibitor cocktail (Roche, Switzerland), and phosphatase inhibitor cocktail (Roche, Switzerland). Protein concentration was determined using a BCA protein assay kit (Thermo Fisher Scientific, USA). Equal amounts of protein were separated by 10% SDS-polyacrylamide gel electrophoresis (SDS-PAGE) and transferred onto nitrocellulose (NC) membranes. […] All primary antibodies were purchased from Cell Signaling Technology (CST, USA), except for GAPDH, which was obtained from Proteintech (Wuhan, China). After washing, the membranes were incubated with HRP-conjugated goat anti-rabbit or anti-mouse IgG secondary antibodies (Biosharp, China) for 1 h at room temperature. Protein bands were visualized using an enhanced chemiluminescence (ECL) detection system and scanned using a chemiluminescence imaging system.

HUVEC [3] = assay: DNA damage: γ-H2AX western blot and alkaline comet assay; format: cell-based, human
Protocol: as §1

HUVEC [4] = assay: Annexin V-FITC/PI apoptosis assay (flow cytometry); format: cell-based, human; conditions: 3.75-15 µM
Text: The Annexin V-FITC/PI Apoptosis Detection Kit (Vazyme) was used to detect cell apoptosis according to the manufacturer’s instructions. Cells were stained with the kit and then analyzed using flow cytometry (Becton Dickinson [BD]).

[5] = tested on: 4T1 cells (orthotopic breast cancer); assay: Anti-tumor efficacy in breast cancer mouse model, alone or with Sunitinib; format: in vivo, BALB/c mice
Protocol: Female BABL/c mice aged 6–8 weeks were purchased from Beijing SPF Biological Co., LTD. 4T1 cells in good growth condition were collected and injected in situ into the mammary fat pad of female BALB/c mice at a density of 2 × 10⁶ cells per mouse. […] When the tumor size increased to approximately 1200 mm^3, we will conduct further tests. It should be pointed out that, when studying vascular leakage, DyLight™ 649-labeled tomato lectin (Tomoto-lectin) was injected intravenously into the mice via the tail vein two hours prior to tissue collection. The tumor tissues were then excised. Half of each tumor was fixed in 4% paraformaldehyde and subsequently processed for paraffin embedding and immunofluorescence staining. The remaining half was immediately frozen in liquid nitrogen and prepared as frozen sections for further experimental procedures.
Paraffin-embedded mouse tumor tissue sections were deparaffinized, rehydrated, and fixed with 4% paraformaldehyde at room temperature for 20 min. After washing with PBS, the sections were permeabilized with 1% Triton X-100 (Solarbio, China) for 15 min at room temperature, followed by blocking with 5% bovine serum albumin (BSA) in PBS containing 0.1% Triton X-100 for 1 h at room temperature to reduce nonspecific binding. […] After washing, the sections were further incubated overnight at 4 °C with primary antibodies against dsDNA and HSP60. The next day, the sections were incubated with Alexa Fluor 647-conjugated goat anti-rabbit IgG (H + L) secondary antibody (catalog no. A0468, Beyotime Biotechnology, China) for 1 h at room temperature in the dark. Nuclear staining was performed using DAPI (catalog no. C0060, Solarbio, China).
To observe metastasis, tissues were harvested and fixed in Bouin’s solution (saturated picric acid 75 ml + 40% formaldehyde 25 ml + glacial acetic acid 5 ml). After fixation, tissues were stained with picric acid to visualize metastatic nodules, which appeared as distinct lesions against the background tissue.

APLNR = molecular target: T1, APLNR (Homo sapiens, UniProt P35414); assay: FLIPR Calcium 6 assay, inhibition of Apelin-13-induced calcium flux; format: cell-based; parameters: expressed in transfected cells; host or cells: HEK293
T1 sequence (P35414 1-380): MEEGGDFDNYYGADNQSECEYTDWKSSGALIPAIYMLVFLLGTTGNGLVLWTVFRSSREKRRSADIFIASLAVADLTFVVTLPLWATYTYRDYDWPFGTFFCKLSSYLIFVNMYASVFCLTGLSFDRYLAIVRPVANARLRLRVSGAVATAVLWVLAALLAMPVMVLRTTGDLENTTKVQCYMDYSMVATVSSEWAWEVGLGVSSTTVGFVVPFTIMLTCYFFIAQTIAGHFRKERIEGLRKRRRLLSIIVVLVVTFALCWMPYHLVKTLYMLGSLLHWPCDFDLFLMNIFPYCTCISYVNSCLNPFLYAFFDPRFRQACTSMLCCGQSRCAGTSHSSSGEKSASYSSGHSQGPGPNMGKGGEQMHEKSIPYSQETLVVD
Protocol: HEK293 cells stably expressing APLNR were seeded in 96-well plates (20,000 cells/well) and loaded with Calcium 6 dye (Molecular Devices) for 2 h. Candidate compounds dissolved in DMSO were applied at 2 µM for 15 min, followed by stimulation with the endogenous agonist Apelin-13 (100 nM). Real-time intracellular calcium flux was quantified using FLIPR Tetra® System (470–495 nm excitation/515–575 nm emission).
These candidates were further evaluated for APLNR inhibitory activity at the concentration of 2 µM by using a FLIPR® Calcium 6 Assay Kit, which quantifies ligand-induced intracellular calcium flux.

[6] = candesartan 10 mg/kg, Sunitinib 40 mg/kg

CCOc1nc2cccc(C(=O)O)c2n1Cc1ccc(-c2ccccc2-c2nnn[nH]2)cc1 [Compound A-2, Candesartan]
Cytotoxicity on HUVEC cells (HUVEC [1]; 15 µM): no significant cytotoxicity | IC50 (HUVEC [1]; 48 h): 32.4 ± 1.69 µM | IC50 (HUVEC [1]; 72 h): 27.1 ± 0.91 µM | Expression of MMP9 and FAK [2]: significantly decreased the expression of MMP9 and FAK | DNA fragmentation (comet assay) (HUVEC [3]): increased DNA fragmentation | γ-H2AX expression (HUVEC [3]; western blot, 48 h): dose-dependent increase | HUVEC apoptosis (HUVEC [4]): no apoptosis was observed | Tumor growth ([5]; candesartan 10 mg/kg once daily, Sunitinib 40 mg/kg every two days, intragastric, 14 days, vs vehicle): significantly reduce the tumor growth | Coverage of pericytes on endothelial cells in tumors (CD31/α-SMA) [5, 6]: significantly increased | Lung surface nodules / pulmonary metastasis [5, 6]: inhibited pulmonary metastasis of breast cancer | IC50 (APLNR; FLIPR system, read-out: IC50, inhibition of Apelin-13-mediated calcium mobilization): 1.21 µM | inhibition at 2 µM (APLNR; compound 2 µM, 15 min, then Apelin-13 100 nM, HEK293 cells stably expressing APLNR, read-out: Inhibition rate (2 μM, %)): 72.3%
